According to ChEMBL document CHEMBL4823254, “Tetrahydroquinoline-Capped Histone Deacetylase 6 Inhibitor SW-101 Ameliorates Pathological Phenotypes in a Charcot-Marie-Tooth Type 2A Mouse Model” (J Med Chem, 2021):
Activity calls are given as the source filed them.

Experiments:
Histone deacetylase 2 = Histone deacetylase 2 (Homo sapiens, UniProt Q92769); experiment: Inhibition of recombinant human HDAC2 using Ac-GAK(Ac)-AMC as substrate preincubated for 10 mins followed by substrate addition and measured after 30 mins by fluorescence-based assay
Histone deacetylase 5 = Histone deacetylase 5 (Homo sapiens, UniProt Q9UQL6); experiment: Inhibition of recombinant human HDAC5 using Boc-Lys(TFA)-AMC as substrate preincubated for 10 mins followed by substrate addition and measured after 30 mins by fluorescence-based assay
[1] = Half life in human liver s9 fraction; format: ADME, subcellular
[2] = Total AUC (0 to infinity) in C57BL/6J mouse brain at 15 mg/kg, ip; format: ADME, organism-based; parameters: time AUCmax, route intraperitoneal, dose 15 mg/kg
[3] = Half life in C57BL/6J mouse brain at 15 mg/kg, ip; format: ADME, organism-based
[4] = biological target: T1, Protein deacetylase HDAC6 (Mus musculus) (UniProt Q9Z2V5); experiment: In vivo inhibition of HDAC6 in wild type mouse assessed as increase in alpha-tubulin acetylation in sciatic nerve tissue at 10 to 20 mg/kg, ip measured after 48 hrs by immunoblot analysis; format: functional, organism-based; details: dose 10-20 mg/kg
T1 sequence (whole entry): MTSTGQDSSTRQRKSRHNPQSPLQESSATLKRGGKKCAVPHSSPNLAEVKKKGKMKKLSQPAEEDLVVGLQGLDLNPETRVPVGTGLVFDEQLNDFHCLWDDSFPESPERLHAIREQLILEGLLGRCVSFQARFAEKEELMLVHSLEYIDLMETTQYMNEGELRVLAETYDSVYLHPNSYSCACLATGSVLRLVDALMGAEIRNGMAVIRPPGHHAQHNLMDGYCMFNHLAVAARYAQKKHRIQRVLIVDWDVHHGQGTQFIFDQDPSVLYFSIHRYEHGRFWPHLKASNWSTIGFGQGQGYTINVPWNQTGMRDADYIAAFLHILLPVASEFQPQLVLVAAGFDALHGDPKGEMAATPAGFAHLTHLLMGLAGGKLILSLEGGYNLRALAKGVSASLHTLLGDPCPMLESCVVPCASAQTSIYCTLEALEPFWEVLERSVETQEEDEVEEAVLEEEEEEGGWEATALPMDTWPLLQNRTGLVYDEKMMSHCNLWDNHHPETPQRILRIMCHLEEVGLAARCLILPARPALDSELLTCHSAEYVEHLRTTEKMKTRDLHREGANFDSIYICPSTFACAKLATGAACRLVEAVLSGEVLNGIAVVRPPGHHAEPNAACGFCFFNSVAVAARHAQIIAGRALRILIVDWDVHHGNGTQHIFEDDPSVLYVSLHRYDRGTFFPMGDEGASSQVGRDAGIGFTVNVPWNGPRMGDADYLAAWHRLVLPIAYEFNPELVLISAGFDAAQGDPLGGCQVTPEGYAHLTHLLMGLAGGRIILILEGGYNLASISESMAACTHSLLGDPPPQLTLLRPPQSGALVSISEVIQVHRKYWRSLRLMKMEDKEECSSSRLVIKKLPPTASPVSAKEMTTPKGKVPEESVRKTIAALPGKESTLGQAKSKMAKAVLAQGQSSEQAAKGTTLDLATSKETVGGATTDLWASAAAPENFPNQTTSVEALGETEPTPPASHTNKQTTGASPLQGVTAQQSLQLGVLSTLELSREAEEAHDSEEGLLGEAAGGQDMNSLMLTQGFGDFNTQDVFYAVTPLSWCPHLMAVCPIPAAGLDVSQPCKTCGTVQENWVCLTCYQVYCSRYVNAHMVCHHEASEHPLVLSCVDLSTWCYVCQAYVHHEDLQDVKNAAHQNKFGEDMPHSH

[5] = biological target: T1, Protein deacetylase HDAC6 (Mus musculus); experiment: In vivo inhibition of HDAC6 in wild type mouse assessed as increase in alpha-tubulin acetylation in sciatic nerve tissue at 10 to 20 mg/kg, ip measured after 24 hrs by immunoblot analysis; format: functional, organism-based; details: dose 10-20 mg/kg
Mus musculus [6] = experiment: Neuroprotective activity in hMFN2-induced CMT2A transgenic mouse model assessed as increase in paw withdrawal threshold at 20 mg/kg, ip qd by von Frey test; format: functional, organism-based
Mus musculus [7] = experiment: Neuroprotective activity in hMFN2-induced CMT2A transgenic mouse model assessed as increase in paw withdrawal threshold at 20 mg/kg, ip qd administered when treated prior with compound dissolved in PBS/PEG400/Tween80/EtOH (50/35/10/5) wt% as vehicle by von Frey test; format: functional, organism-based
[8] = biological target: T2, Protein deacetylase HDAC6 (Homo sapiens, UniProt Q9UBN7)
T2 sequence (Q9UBN7 whole entry): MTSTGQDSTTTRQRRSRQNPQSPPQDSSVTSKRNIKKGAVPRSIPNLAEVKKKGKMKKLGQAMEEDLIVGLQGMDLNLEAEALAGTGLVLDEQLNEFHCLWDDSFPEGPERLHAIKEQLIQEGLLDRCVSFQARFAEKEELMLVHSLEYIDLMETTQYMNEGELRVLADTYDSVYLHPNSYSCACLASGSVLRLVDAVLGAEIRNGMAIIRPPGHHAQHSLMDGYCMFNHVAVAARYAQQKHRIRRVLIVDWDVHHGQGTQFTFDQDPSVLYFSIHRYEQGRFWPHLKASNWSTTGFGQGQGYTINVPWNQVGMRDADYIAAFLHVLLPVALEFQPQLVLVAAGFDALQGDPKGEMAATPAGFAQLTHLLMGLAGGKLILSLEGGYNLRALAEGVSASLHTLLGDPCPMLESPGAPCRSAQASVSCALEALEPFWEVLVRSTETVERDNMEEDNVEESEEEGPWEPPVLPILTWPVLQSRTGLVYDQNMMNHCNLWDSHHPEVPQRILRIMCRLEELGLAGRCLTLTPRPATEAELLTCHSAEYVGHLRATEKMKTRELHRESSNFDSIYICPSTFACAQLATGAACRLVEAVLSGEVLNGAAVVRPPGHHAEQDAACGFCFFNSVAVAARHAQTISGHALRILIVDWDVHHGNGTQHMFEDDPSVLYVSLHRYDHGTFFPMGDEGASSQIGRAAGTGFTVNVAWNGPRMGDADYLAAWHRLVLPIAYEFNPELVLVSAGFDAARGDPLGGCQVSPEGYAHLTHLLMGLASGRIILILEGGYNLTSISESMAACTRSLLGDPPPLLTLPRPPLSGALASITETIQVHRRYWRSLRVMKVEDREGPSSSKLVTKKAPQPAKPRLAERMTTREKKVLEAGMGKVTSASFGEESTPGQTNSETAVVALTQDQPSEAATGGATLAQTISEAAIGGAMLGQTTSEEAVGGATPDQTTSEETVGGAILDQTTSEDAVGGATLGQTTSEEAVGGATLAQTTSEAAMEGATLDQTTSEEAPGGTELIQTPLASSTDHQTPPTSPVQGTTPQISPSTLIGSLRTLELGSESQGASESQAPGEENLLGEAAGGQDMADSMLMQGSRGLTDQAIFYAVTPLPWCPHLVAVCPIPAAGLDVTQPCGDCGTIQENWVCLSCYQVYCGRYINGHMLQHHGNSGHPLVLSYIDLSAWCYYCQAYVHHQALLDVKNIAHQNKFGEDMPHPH
Description: Inhibition of Nanoluc-fused HDAC6 CD2 (unknown origin) expressed in HEK293 cells incubated for 2 hrs by NANOBRET assay

Sequence of Histone deacetylase 2 (Q92769 whole entry): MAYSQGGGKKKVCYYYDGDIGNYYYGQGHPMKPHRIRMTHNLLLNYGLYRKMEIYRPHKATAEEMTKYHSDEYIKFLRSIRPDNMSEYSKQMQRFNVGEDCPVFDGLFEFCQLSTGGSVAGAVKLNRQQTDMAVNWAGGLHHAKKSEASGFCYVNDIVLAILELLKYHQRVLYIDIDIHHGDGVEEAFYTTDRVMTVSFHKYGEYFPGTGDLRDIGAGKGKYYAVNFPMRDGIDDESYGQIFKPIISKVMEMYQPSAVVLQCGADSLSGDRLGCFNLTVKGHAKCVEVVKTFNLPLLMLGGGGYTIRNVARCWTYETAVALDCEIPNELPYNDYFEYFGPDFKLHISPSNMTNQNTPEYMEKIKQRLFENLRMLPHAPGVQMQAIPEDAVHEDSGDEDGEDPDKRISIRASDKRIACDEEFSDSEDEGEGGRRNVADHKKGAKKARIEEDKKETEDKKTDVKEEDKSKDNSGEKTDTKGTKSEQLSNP
Sequence of Histone deacetylase 5 (Q9UQL6 whole entry): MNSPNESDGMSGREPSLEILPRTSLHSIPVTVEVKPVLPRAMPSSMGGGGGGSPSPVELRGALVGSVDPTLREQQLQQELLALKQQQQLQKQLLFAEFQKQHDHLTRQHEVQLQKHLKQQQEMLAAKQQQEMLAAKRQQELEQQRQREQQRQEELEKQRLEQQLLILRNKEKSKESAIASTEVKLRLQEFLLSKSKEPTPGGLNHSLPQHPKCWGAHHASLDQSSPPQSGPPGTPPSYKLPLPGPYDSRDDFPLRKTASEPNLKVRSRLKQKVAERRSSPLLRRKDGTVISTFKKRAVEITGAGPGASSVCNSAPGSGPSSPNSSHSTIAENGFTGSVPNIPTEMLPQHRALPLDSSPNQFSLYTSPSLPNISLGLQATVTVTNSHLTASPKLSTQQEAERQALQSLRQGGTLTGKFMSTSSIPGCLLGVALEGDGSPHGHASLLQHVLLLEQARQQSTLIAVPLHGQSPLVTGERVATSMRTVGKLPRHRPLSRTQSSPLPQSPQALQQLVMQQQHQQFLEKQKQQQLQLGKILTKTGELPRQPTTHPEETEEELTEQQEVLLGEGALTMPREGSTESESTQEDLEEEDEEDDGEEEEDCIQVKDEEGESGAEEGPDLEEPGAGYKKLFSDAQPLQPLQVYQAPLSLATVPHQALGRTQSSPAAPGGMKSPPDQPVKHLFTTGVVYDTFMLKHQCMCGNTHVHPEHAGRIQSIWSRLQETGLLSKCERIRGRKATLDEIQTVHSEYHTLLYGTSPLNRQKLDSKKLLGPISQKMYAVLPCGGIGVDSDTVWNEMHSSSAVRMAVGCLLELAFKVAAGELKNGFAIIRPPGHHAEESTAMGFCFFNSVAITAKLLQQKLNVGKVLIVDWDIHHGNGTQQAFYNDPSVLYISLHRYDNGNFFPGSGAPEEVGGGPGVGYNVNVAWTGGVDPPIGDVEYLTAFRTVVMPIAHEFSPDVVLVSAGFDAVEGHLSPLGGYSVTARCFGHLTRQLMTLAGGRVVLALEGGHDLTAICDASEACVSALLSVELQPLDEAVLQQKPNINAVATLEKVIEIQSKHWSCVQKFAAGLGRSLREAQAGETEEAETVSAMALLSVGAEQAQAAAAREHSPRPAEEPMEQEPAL

IC50 (Histone deacetylase 2): 140 nM
IC50 (Histone deacetylase 5): 276 nM
half-life [1]: > 16.7 h
AUC(0-inf) [2]: 280 ng·h/mL
half-life [3]: 2.9 h
inhibition [4]: inactive
inhibition [5]: Active
IC50 [8]: 1370 nM
Compound: NC(=O)c1ccc2c(c1)CCCN2Cc1ccc(C(=O)NO)cc1
Activity (Mus musculus [6]): Active
Activity (Mus musculus [7]): Active
